Patent US9102648B1, “Bioavailable diacylhydrazine ligands for modulating the expression of exogenous genes via an ecdysone receptor complex” (Intrexon Corporation, priority 2003, dated 2015)
pEC50: −log10 of the molar value. ≈ marks a conversion by molar mass, not a printed value. Read-outs that look alike come from different tables or passages of the source.

Tests used:
[1] = Determination of LC Log P (experimental); format: physicochemical
Experimental: Liquid chromatography retention times (RT) are measured for each substance using the conditions described below. A linear equation is derived relating RT to log P is developed from the data for the log P standards. The log P for the test compound is calculated from the log P/retention time equation.

[2] = molecular target: GAL4 DBD (1-147)-CfEcR(DEF)/VP16AD-βRXREF-LmUSPEF (Choristoneura fumiferana, UniProt O77240); assay: cell-based; settings: for 27-63 assay Rel Max FI: maximum fold induction at any concentration relative to that of GS-E ligand, CHO 27-63 cells; for fold induction at 3.3 µM: read-out: Fold Induction, 27-63 Assay, 3.3 uM; for fold induction at 33 µM: read-out: Fold Induction, 27-63 Assay, 33 uM
[3] = tested on: mutated ecdysone receptor-based gene switch; assay: In vivo SEAP induction, ligand by IP injection; parameters: species or system C57BL/6 mouse; settings: for Secreted Alkaline Phosphatase (percentage of GS ™-E ligand induction) Day 2 / Secreted Alkaline Phosphatase (percentage of GS ™-E ligand induction) Day 3 / Secreted Alkaline Phosphatase (percentage of GS ™-E ligand induction) Day 11: mouse serum; for Secreted Alkaline Phosphatase (percentage of GS ™-E ligand induction) Day 2: IP 2.6 μmol ligand 3 days after electroporation, day 2 after ligand; for Secreted Alkaline Phosphatase (percentage of GS ™-E ligand induction) Day 3 / Secreted Alkaline Phosphatase (percentage of GS ™-E ligand induction) Day 11: IP 2.6 μmol ligand; for Secreted Alkaline Phosphatase (percentage of GS ™-E ligand induction) Day 3: day 3 after ligand; for Secreted Alkaline Phosphatase (percentage of GS ™-E ligand induction) Day 11: day 11 after ligand
Summary of the method: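 Gene switch plasmids (receptor under CMV promoter) electroporated into quadriceps of C57BL/6 mice; 3 days later ligand given IP at 2.6 μmol or 26 nmol in 50 μL DMSO per mouse. Serum SEAP measured by chemiluminescence 2-11 days after dosing, averaged over four animals, expressed as % of GS™-E ligand induction.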

[4] = Aqueous equilibrium solubility in pH 7.4 buffer; settings: for Solubility pH 7.4: pH 7.4 aqueous buffer, room temperature, equilibrium
Experimental: Equilibrium solubility was measured in pH 7.4 aqueous buffer. The buffer was prepared by adjusting the pH of a 0.07 M solution of NaH2PO4 to pH 7.4 with 10 N NaOH. […] At least 1 mg of powder was combined with 1 mL of buffer to make >1 mg/mL mixture. These samples were shaken for ≧2 hours and left to stand overnight at room temperature. The samples were then filtered through a 0.45-μm Nylon syringe filter that was first saturated with the sample. The filtrate was sampled twice, consecutively. The filtrate was assayed by HPLC against standards prepared in methanol.

[5] = from LC retention time against log P standards, read-out: LC LogP (exp)

| Compound | chromatographic logP [1, 5] | pEC50 [2] | 27-63 assay Rel Max FI [2] | fold induction at 3.3 µM [2] | fold induction at 33 µM [2] | Secreted Alkaline Phosphatase (percentage of GS ™-E ligand induction) Day 2 [3] | Secreted Alkaline Phosphatase (percentage of GS ™-E ligand induction) Day 3 [3] | Secreted Alkaline Phosphatase (percentage of GS ™-E ligand induction) Day 11 [3] | further results |
| --- | --- | --- | --- | --- | --- | --- | --- | --- | --- |
| COc1cccc(C(=O)NN(C(=O)c2cc(Cl)c(F)c(Cl)c2)C(C)(C)C)c1C [RG-101382, N-(3-methoxy-2-methylbenzoyl)-N′-(3,5-dichloro-4-fluorobenzoyl)-N′-tert-butylhydrazine] | 4.4 | 6.51 | 1.188 | 2700 | 2570 | 92 percentage of GS ™-E ligand induction | 81 percentage of GS ™-E ligand induction | 890 percentage of GS ™-E ligand induction | – |
| COc1cnccc1C(=O)N(NC(=O)c1cccc(O)c1C)C(C)(C)C [RG-115595] | – | – | – | – | – | – | – | – | Solubility pH 7.4 [4]: 0.026 mg/mL |
| CCc1c(C(=O)NN(C(=O)c2cc(C)cc(Cl)c2)C(C)(C)C)ccc2c1OCCO2 [RG-101494, N-(5-ethyl-1,4-benzodioxan-6-carbonyl)-N′-(tert-butyl)-N′-(3-chloro-5-methylbenzoyl)hydrazine] | 4.3 | 7.44 | 0.916 | 717 | 294 | 136 percentage of GS ™-E ligand induction | 138 percentage of GS ™-E ligand induction | – | – |
| CCCC(N(NC(=O)c1cccc(OC)c1CC)C(=O)c1cc(OC)c(C)c(OC)c1)C(C)(C)C (centres unmarked) [RG-115829, 3,5-Dimethoxy-4-methyl-benzoic acid N-(1-tert-butyl-butyl)-N′-(2-ethyl-3-methoxy-benzoyl)-hydrazide] | – | 7.46 | 1.264 | 2600 | 45 | 72 percentage of GS ™-E ligand induction | 83 percentage of GS ™-E ligand induction | 687 percentage of GS ™-E ligand induction | – |
| Cc1cc(C)cc(C(=O)N(NC(=O)c2ccc3c(c2C)OCCO3)C(C)(C)C)c1 [RG-102317, N-(5-methyl-1,4-benzodioxan-6-carbonyl)-N′-(tert-butyl)-N′-(3,5-dimethylbenzoyl)hydrazine] | – | 6.99 | 0.948 | 2550 | 2500 | 112 percentage of GS ™-E ligand induction | 116 percentage of GS ™-E ligand induction | 61 percentage of GS ™-E ligand induction | chromatographic logP [1]: 3.6 |
| COc1cc(C(=O)N(NC(=O)c2ccc3c(c2C)OCCO3)C(C)(C)C#N)cc(OC)c1C [RG-115092, N-(5-methyl-1,4-benzodioxan-6-carbonyl)-N′-(2-cyano-2-propyl)-N′-(3,5-dimethoxy-4-methylbenzoyl)hydrazine] | 3.5 | 6.67 | 1.092 | 2870 | 3110 | 8 percentage of GS ™-E ligand induction | 2 percentage of GS ™-E ligand induction | – | – |
| CC(=O)c1ccc(C(=O)NN(C(=O)c2cc(C(=O)O)cc(C(=O)O)c2)C(C)(C)C)cc1 [RG-100150] | – | – | – | – | – | – | – | – | Solubility pH 7.4 [4]: ≧1.0 mg/mL |
| COc1cc(C(=O)N(NC(=O)c2ccc3c(c2C)OCCO3)C(C)(C)C)cc(OC)c1C [RG-115637, 5-Methyl-2,3-dihydro-benzo[1,4]dioxine-6-carboxylic acid N′-tert-butyl-N′-(3,5-dimethoxy-4-methyl-benzoyl)-hydrazide] | 3.54 | 6.93 | 1.305 | 4160 | 2740 | 12 percentage of GS ™-E ligand induction | 7 percentage of GS ™-E ligand induction | 0 percentage of GS ™-E ligand induction | – |
| CCc1c(C(=O)NN(C(=O)c2ccc(F)c(C(F)(F)F)c2)C(C)(C)C)ccc2c1OCCO2 [RG-115280] | – | – | 0.254 | – | – | – | – | – | Fold Induction, 27-63 Assay, 3.3 uM ([2]; 3.3 uM ligand, RLU ligand treated / RLU DMSO treated cells, average of two wells): 9; Fold Induction, 27-63 Assay, 33 uM ([2]; 33 uM ligand, RLU ligand treated / RLU DMSO treated cells, average of two wells): 422; pEC50 ([2]; read-out: 27-63 assay EC50, CHO 27-63 stable cell line, luciferase reporter, average of two wells): 4.96; Solubility pH 7.4 [4]: 0.0012 mg/mL |
| CCc1c(OC)cccc1C(=O)NN(C(=O)c1cc(C)cc(C=NNC(=O)C(N)=O)c1)C(C)(C)C [RG-115613, oxamic hydrazone of N-(3-formyl-5-methyl-benzoyl)-N-tert-butyl-N′-(2-ethyl-3-methoxy-benzoyl) hydrazide] | – | – | – | – | – | 2 percentage of GS ™-E ligand induction | 1 percentage of GS ™-E ligand induction | – | LC LogP (exp) ([1]; from LC retention time against log P standards): 2.8 |
| CC(C)(C)N(NC(=O)c1ccc(Cl)cc1)C(=O)c1ccccc1 [RG-100864] | – | 4.76 | 0.716 | 1 | 1180 | – | – | – | logP ([1]; diacylhydrazine log P standards (log P known experimentally)): 3.2 |
| CCC(N(NC(=O)c1cccc(OC)c1C)C(=O)c1cc(C)cc(C)c1)C(C)(C)C (centres unmarked) [RG-115819, 3,5-dimethyl-benzoic acid N-(1-ethyl-2,2-dimethyl-propyl)-N′-(3-methoxy-2-methyl-benzoyl)-hydrazide] | – | 7.60 | 1.045 | 1970 | 2370 | 172 percentage of GS ™-E ligand induction | 215 percentage of GS ™-E ligand induction | 3,008 percentage of GS ™-E ligand induction | Secreted Alkaline Phosphatase Day 2 ([3]; IP 26 nmol ligand, day 2): 5,984 ng/ml mouse sera; Secreted Alkaline Phosphatase Day 3 ([3]; IP 26 nmol ligand, day 3): 4,096 ng/ml mouse sera; Secreted Alkaline Phosphatase Day 7 ([3]; IP 26 nmol ligand, day 7): 453 ng/ml mouse sera |
| COc1cc(C(=O)N(NC(=O)c2ccc3c(c2C)OCCO3)C(C)(C)C)cc(OC)c1O [RG-115009, 4-Hydroxy-3,5-dimethoxy-benzoic acid N-tert-butyl-N′-(5-methyl-2,3-dihydro-benzo[1,4]dioxine-6-carbonyl)-hydrazide] | 1.9 | – | – | – | – | 4 percentage of GS ™-E ligand induction | 3 percentage of GS ™-E ligand induction | – | – |
| Cc1c(C(=O)NN(C(=O)c2cc(F)c(F)c(F)c2)C(C)(C)C)ccc2c1CCCO2 [RG-115575, 3,4,5-Trifluoro-benzoic acid N-tert-butyl-N′-(5-methyl-chroman-6-carbonyl)-hydrazide] | 4.1 | – | – | – | – | 74 percentage of GS ™-E ligand induction | 78 percentage of GS ™-E ligand induction | 69 percentage of GS ™-E ligand induction | – |
| CCc1ccc(C(=O)NN(C(=O)c2cc(C)cc(C)c2)C(C)(C)C)cc1 [RG-102125] | – | 6.72 | 0.721 | – | – | – | – | – | solubility ([4]; pH 7.4 aqueous phosphate buffer, pH 7.4, aqueous buffer, thermodynamic from solid): 0.6 µg/mL (≈ 1.7 µM) |
